Results as given in the supplement of paper PMC7108870.

Tests used:
HEK293sieSTAT3(wt) [1] = experiment: drug sensitivity score (DSS), viability CellTiter-Glo (DSS (dimensionless)); higher = more growth inhibition; extreme values may be limits of the assay; conditions: 72 h; STAT3 variant: wild type
Procedure, shortened: (§1)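 A drug sensitivity score, based on the area of the dose-response curve, was calculated in Breeze after normalising values to negative and positive control wells. It came from HEK293 cells carrying a STAT3-dependent luciferase reporter and overexpressing wild-type or mutant STAT3, plated at 20 μl of 100,000 cells/ml onto compounds acoustically pre-plated at 5 concentrations in 10-fold dilutions in 384-well plates. Following 72 hours at 37°C and 5% CO2, CellTox Green fluorescence (485/520 nm) and then CellTiter-Glo luminescence were read on a PHERAstar FS.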

HEK293sieSTAT3(Y640F) [2] = experiment: as above; conditions: 72 h; STAT3 variant: Y640F (constitutively active)
Procedure, shortened: as §1

HEK293sieSTAT3(wt) [3] = experiment: drug sensitivity score (DSS), cytotoxicity CellTox Green (DSS (dimensionless)); higher = more cytotoxic; extreme values may be limits of the assay; conditions: 72 h; STAT3 variant: wild type
Procedure, shortened: as §1

HEK293sieSTAT3(Y640F) [4] = experiment: as above; conditions: 72 h; STAT3 variant: Y640F (constitutively active)
Procedure, shortened: as §1

Compound	drug sensitivity score (HEK293sieSTAT3(wt) [1])	drug sensitivity score (HEK293sieSTAT3(Y640F) [2])	drug sensitivity score (HEK293sieSTAT3(wt) [3])	drug sensitivity score (HEK293sieSTAT3(Y640F) [4])
Cc1cc(Nc2cc(CN3CCOCC3)c3nc(C)c(Cc4ccc(Cl)cc4F)n3n2)n[nH]1 [Gandotinib] (top concentration tested 10000 nM)	8.78	5.34	6.79	2.66
CC(C)c1cc(-c2n[nH]c(=O)n2-c2ccc3c(ccn3C)c2)c(O)cc1O [Ganetespib] (top concentration tested 1000 nM)	27.4	20.6	23.1	6.77
CN(C)C1CCN(C(=O)c2ccc(NC(=O)Nc3ccc(-c4nc(N5CCOCC5)nc(N5CCOCC5)n4)cc3)cc2)CC1 [Gedatolisib] (top concentration tested 1000 nM)	9.54	12.9	0.82	0
COc1cc2ncnc(Nc3ccc(F)c(Cl)c3)c2cc1OCCCN1CCOCC1 [Gefitinib] (top concentration tested 10000 nM)	3.96	1.88	1.5	0
Nc1ccn([C@@H]2O[C@H](CO)[C@@H](O)C2(F)F)c(=O)n1 [Gemcitabine] (top concentration tested 1000 nM)	19.5	14.6	4.58	2.77
CCN(CC)Cc1ccc2cc(COC(=O)Nc3ccc(C(=O)NO)cc3)ccc2c1 [Givinostat] (top concentration tested 1000 nM)	11.6	10.8	6.08	4.23
CN1CC[C@@H](NC(=O)Nc2ccc(C#N)cc2)C[C@@H]1c1nc2ccccc2[nH]1 [Glasdegib] (top concentration tested 1000 nM)	0	3.01	0	0
CN1CCN(C2CCN(C(=O)Nc3cc(Oc4ccc(NC(=O)C5(C(=O)Nc6ccc(F)cc6)CC5)c(F)c4)ccn3)CC2)CC1 [Golvatinib] (top concentration tested 2500 nM)	1.49	2.77	0.24	0
CC(C)C[C@H](NC(=O)[C@@H](COC(C)(C)C)NC(=O)[C@H](Cc1ccc(O)cc1)NC(=O)[C@H](CO)NC(=O)[C@H](Cc1c[nH]c2ccccc12)NC(=O)[C@H](Cc1cnc[nH]1)NC(=O)[C@@H]1CCC(=O)N1)C(=O)N[C@@H](CCCNC(=N)N)C(=O)N1CCC[C@H]1C(=O)NNC(N)=O [Goserelin] (top concentration tested 10000 nM)	1.57	2.1	0	0
O=S(=O)(c1cccc2c(O)nccc12)N1CCCNCC1 [Hydroxyfasudil] (top concentration tested 37500 nM)	5.7	0.45	0	0
NC(=O)NO [Hydroxyurea] (top concentration tested 100000 nM)	1.75	4.19	0	0
COc1cc2c(cc1-c1c(C)noc1C)ncc1[nH]c(=O)n([C@H](C)c3ccccn3)c12 [I-BET151] (top concentration tested 10000 nM)	5.57	8.85	6.67	2.48
O=C(O)c1ccc(O)c2ncccc12 [IOX-1] (top concentration tested 100000 nM)	2.26	1.18	0	0
O=C(O)CNC(=O)c1c(O)c2ccccc2n(Cc2ccccc2)c1=O [IOX-2] (top concentration tested 50000 nM)	2.91	0	0	0
C=CC(=O)N1CCC[C@@H](n2nc(-c3ccc(Oc4ccccc4)cc3)c3c(N)ncnc32)C1 [Ibrutinib] (top concentration tested 1000 nM)	2.79	0.59	3.43	0.94
C#Cc1cccc(Nc2ncnc3cc4c(cc23)OCCOCCOCCO4)c1 [Icotinib] (top concentration tested 10000 nM)	1.11	0.77	0.13	0
CC(=O)[C@]1(O)Cc2c(O)c3c(c(O)c2[C@@H](O[C@H]2C[C@H](N)[C@H](O)[C@H](C)O2)C1)C(=O)c1ccccc1C3=O [Idarubicin] (top concentration tested 1000 nM)	26.9	27.1	10.7	7.05

Compound	drug sensitivity score (HEK293sieSTAT3(wt) [1])	drug sensitivity score (HEK293sieSTAT3(Y640F) [2])	drug sensitivity score (HEK293sieSTAT3(wt) [3])	drug sensitivity score (HEK293sieSTAT3(Y640F) [4])
COc1cc(C(=O)O)ccc1NC(=O)[C@@H]1N[C@@H](CC(C)(C)C)[C@](C#N)(c2ccc(Cl)cc2F)[C@H]1c1cccc(Cl)c1F [Idasanutlin] (top concentration tested 10000 nM)	3.61	4.92	0	0.11
CC[C@H](Nc1ncnc2[nH]cnc12)c1nc2cccc(F)c2c(=O)n1-c1ccccc1 [Idelalisib] (top concentration tested 10000 nM)	2.04	1.95	0.23	0
O=P1(NCCCl)OCCCN1CCCl (stereo unspecified) [Ifosfamide] (top concentration tested 10000 nM)	0	0	0	0
Cc1ccc(NC(=O)c2ccc(CN3CCN(C)CC3)cc2)cc1Nc1nccc(-c2cccnc2)n1 [Imatinib] (top concentration tested 10000 nM)	7.13	4.88	5.22	0.42
CC(C)Cn1cnc2c(N)nc3ccccc3c21 [Imiquimod] (top concentration tested 2500 nM)	2.55	4.36	0	0
O=C(Nc1ccncc1)C(=O)c1cn(Cc2ccc(Cl)cc2)c2ccccc12 [Indibulin] (top concentration tested 10000 nM)	16	10.7	5.57	1.19
NC(=O)c1ccc(I)c([N+](=O)[O-])c1 [Iniparib] (top concentration tested 10000 nM)	0	0	0	0
CC(C)NC[C@@H](C(=O)N1CCN(c2ncnc3c2[C@H](C)C[C@H]3O)CC1)c1ccc(Cl)cc1 [Ipatasertib] (top concentration tested 10000 nM)	16.7	14.6	0.07	0
CCc1c2c(nc3ccc(OC(=O)N4CCC(N5CCCCC5)CC4)cc13)-c1cc3c(c(=O)n1C2)COC(=O)[C@]3(O)CC [Irinotecan] (top concentration tested 10000 nM)	14.5	12.2	6.44	2.17
CCC(C)n1ncn(-c2ccc(N3CCN(c4ccc(OCC5COC(Cn6cncn6)(c6ccc(Cl)cc6Cl)O5)cc4)CC3)cc2)c1=O (stereo unspecified) [Itraconazole] (top concentration tested 5000 nM)	5.54	6.28	7.01	4.55
C/C(=C\c1csc(C)n1)[C@@H]1C[C@@H]2O[C@]2(C)CCC[C@H](C)[C@H](O)[C@@H](C)C(=O)C(C)(C)[C@@H](O)CC(=O)N1 [Ixabepilone] (top concentration tested 1000 nM)	8.23	6.8	3.56	0.83
CCCNC(=O)Nc1ccc(Oc2ncnc3cc(OC)c(OC)cc23)cc1Cl [KRN-633] (top concentration tested 2500 nM)	0.2	0.57	0.01	0
O=C(c1ccc(/C=C/c2n[nH]c3ccccc23)cc1)N1CCNCC1 [KW-2449] (top concentration tested 2500 nM)	0.3	1.97	0.89	0
O=C(Cc1ccc(-c2ccc(OCCN3CCOCC3)cc2)cn1)NCc1ccccc1 [KX2-391] (top concentration tested 10000 nM)	23.2	19.9	19.6	4.02
CN[C@@H](C)C(=O)N[C@H](C(=O)N1CCC[C@H]1c1nc(C(=O)c2ccc(F)cc2)cs1)C1CCCCC1 [LCL161] (top concentration tested 25000 nM)	24.6	13.7	45	26.6
CS(=O)(=O)CCNCc1ccc(-c2ccc3ncnc(Nc4ccc(OCc5cccc(F)c5)c(Cl)c4)c3c2)o1 [Lapatinib] (top concentration tested 1000 nM)	0	0	2.09	0
Oc1ccc2c(c1)CC[C@H](c1ccccc1)[C@@H]2c1ccc(OCCN2CCCC2)cc1 [Lasofoxifene] (top concentration tested 1000 nM)	3.21	2.47	0	0
